Measured values from patent publication US20260294922A1, “Inhibitors of JUN N-Terminal Kinases (JNK1, JNK2, and/or JNK3) and Mitogen-Activated Protein Kinases (MAPK8, MAPK9, and/or MAPK10) and Methods of Using Same” (Baylor College of Medicine, priority 2023, published 2026).
“And” between values parts separate entries of the source, which are not always exact repeats. Equal values may be shown once. “Also recorded” adds a separate entry of the source.

What was measured:
[1] = tested on: primary human endometriotic stromal cells (patient 50); assay: IL-1β-stimulated pro-inflammatory gene expression in primary endometriotic stromal cells, patient 50; format: cell-based; conditions: patient 50, relative to CDD-939
Description: FIGS. 14G-14H represent responses of primary human endometriotic stromal cells [from the endometrioma lesion] from endometriosis patient “50”.
FIGS. 15A-15H provide replicate results of the response of primary human endometriotic stromal cells (derived from the lesions) obtained from endometriosis patient “50”. In each example. […] In each example, CDD-2728 inhibited IL-1β-stimulated pro-inflammatory biomarker responses in primary endometriotic stromal cell cultures. Lower concentrations of JNK inhibitors were required to reduce the proinflammatory response of IL-1β in stromal cells than the concentration of JNK-I in 12Z epithelial cells.
Another target tissue of JNK inhibitors in the treatment of endometriosis are endometriotic stromal cells. To further exemplify the relevance of the discoveries of novel JNK inhibitors for endometriosis, stromal cells obtained from the endometriotic lesions of a patient with endometriosis have been cultured. The compliant identifier for this patient is Eosis50. These cells represent stromal cells from an ovarian endometrioma. Similar to culture system described elsewhere herein, the inflammatory environment of peritoneal endometriosis was simulated by the addition of IL-1β and increasing concentrations of either bentamapimod or CDD-2728 were added to these stromal cell cultures. […]

CLK3 = target: T1, CLK3 (Homo sapiens, UniProt P49761); assay: ThermoFisher SelectScreen, CLK3; format: binding
T1 construct: purchased ThermoFisher (SelectScreen, outsourced service)

ERK2 = target: T2, ERK2 (Homo sapiens, UniProt P28482); assay: ThermoFisher SelectScreen, ERK2; format: binding
T2 construct: purchased ThermoFisher (SelectScreen, outsourced service)

iHEEC = assay: Beta-catenin expression in IL-1β-treated iHEEC; format: cell-based, human; set-up: beta-catenin expression at cell contact points: dose or concentration left out as unconfirmed
Experimental: FIGS. 29A-29C depict the impact of JNK inhibition on the cellular expression of beta-catenin located at the cell surface and throughout the cytoplasm of iHEEC, wherein HEEC cells were treated with vehicle (FIG. 29A), IL-1β (FIG. 29B), or IL-1β and […] CDD-2728 (FIG. 29C). The increased cytoplasmic and plasma membrane expression of β-catenin following exposure to IL-1β supports the role of β-catenin in facilitating epithelial-to-mesenchymal transdifferentiation. The cellular morphology is consistent with that of columnar epithelial cells. iHEEC were treated with JNK-I or vehicle for 30 min before addition of IL-1β, followed by incubation of cells for another 15 minutes. Addition of IL-1β over this short time course caused a dramatic change in the expression of beta-catenin in iHEEC endometriotic epithelial cells, and a noticeable change in phospho-JNK throughout the cytoplasm, induced by IL-1β. Beta catenin expression at contact points between cells is increased by IL-1β, and inhibited by CDD-2728.

[2] = Plasma ALT and AST after intraperitoneal administration; format: in vivo, mouse; conditions: 24 h post-dose, individual mice 1-3
[3] = Pharmacokinetics after oral administration in mice; format: in vivo; conditions: mouse, 50 mg/kg, plasma
Description: Based on stability and estimated half-life of compounds exposed to liver microsome in vitro, CDD-2728 was selected for PK evaluation.

[4] = tested on: 12Z endometriotic epithelial cells; assay: IL-1β-stimulated pro-inflammatory gene expression (qPCR) in 12Z cells; format: cell-based, human; conditions: relative to bentamapimod
Description: These studies indicate that NanoBRET assays are an innovative technical platform to measure target engagement of CDD JNK inhibitors with the target JNK1, JNK2 or JNK3. As further evidence that JNK inhibitors address disease-relevant endpoints, biological responses of JNK inhibitors are provided herein, as measured in target tissue cellular models. 12Z immortalized endometriotic epithelial cells and patient-derived endometriotic stromal cells have been cultured with reference compound bentamapimod, CDD-2628, and CDD-2728. To exemplify the effects of CDD-2628 and CDD-2728 in the endometrial cell cultures, gene expression was measured using qPCR (expressed as fold-change relative to GAPDH, a housekeeping gene that is not affected by culture treatment effects) that reflect synthesis of inflammatory lipids (PTGS2), transformation of cells to a more migration and invasive potential (MMP-3) and chemoattractant cytokines to recruit pro-inflammatory immune cells (IL-6, IL-8).
In the culture systems employed in FIGS. 12A-12J, FIGS. 13A-13B, FIGS. 14A-14H, FIGS. 15A-15H, and FIGS. 16A-16F, the treatment of cells with IL-1β is used to mimic the peritoneal environment where IL-1β is most frequently measured at higher concentrations in patients with endometriosis (0.1 ng/mL-1 ng/mL) than in unaffected women (<0.01 ng/mL). The use of IL-1β to mimic the pro-inflammatory environment is a common method in cellular assays for endometriosis research. Although the concentrations of IL-1β in these cell cultures are higher than measured in peritoneal fluid, there are multiple other pro-inflammatory cytokines in peritoneal fluid that contribute to the pro-inflammatory environment.
Specifically, 12Z cells were plated at a density of 1×10^5 cells/well in a 12-well tissue culture plate, serum-starved overnight (17-18 h), pre-treated with vehicle (DMSO) or JNK inhibitor for 30 minutes, then stimulated with 10 ng/ml IL-1β in the presence or absence of the JNK inhibitors for 6 hours. After the 6-hour treatment, mRNA was extracted from the cells using the Qiagen RNEasy mini isolation kit and […] of mRNA was reverse transcribed into cDNA using the qScript cDNA Supermix (Quanta Biosciences). cDNA was amplified using SYBR Green Master Mix (Applied Biosystems) with quantitative Real Time PCR (BioRad CFX) using pre-designed and validated primers specific for genes encoding IL6, IL8, PTGS2/COX2, and MMP3 (BioRad). Relative quantification of these specific genes was calculated by the ΔΔCt method, normalizing their abundance relative to the internal housekeeping gene, GAPDH, followed by quantification relative to the vehicle-treated cells. Statistical analyses and visualizations were performed using a One Way ANOVA with a Tukey's multiple comparison post-hoc test on GraphPad Prism version 9.

12Z cells = assay: Phosphorylation of Jun and JNK in IL-1β-treated 12Z cells; format: cell-based, human

T1 sequence (P49761 whole entry): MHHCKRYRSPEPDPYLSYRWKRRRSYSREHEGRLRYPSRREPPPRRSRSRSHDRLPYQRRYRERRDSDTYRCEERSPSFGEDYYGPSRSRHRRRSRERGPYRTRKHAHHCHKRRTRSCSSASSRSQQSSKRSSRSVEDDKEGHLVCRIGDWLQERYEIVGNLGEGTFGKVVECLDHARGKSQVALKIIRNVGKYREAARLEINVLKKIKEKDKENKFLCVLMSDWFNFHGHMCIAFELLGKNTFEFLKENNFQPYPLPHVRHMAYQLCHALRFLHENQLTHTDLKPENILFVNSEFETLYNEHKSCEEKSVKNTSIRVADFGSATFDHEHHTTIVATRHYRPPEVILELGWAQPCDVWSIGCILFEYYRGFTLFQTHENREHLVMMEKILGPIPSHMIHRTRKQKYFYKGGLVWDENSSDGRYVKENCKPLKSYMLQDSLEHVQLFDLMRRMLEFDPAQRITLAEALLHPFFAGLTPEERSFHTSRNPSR
T2 sequence (P28482 whole entry): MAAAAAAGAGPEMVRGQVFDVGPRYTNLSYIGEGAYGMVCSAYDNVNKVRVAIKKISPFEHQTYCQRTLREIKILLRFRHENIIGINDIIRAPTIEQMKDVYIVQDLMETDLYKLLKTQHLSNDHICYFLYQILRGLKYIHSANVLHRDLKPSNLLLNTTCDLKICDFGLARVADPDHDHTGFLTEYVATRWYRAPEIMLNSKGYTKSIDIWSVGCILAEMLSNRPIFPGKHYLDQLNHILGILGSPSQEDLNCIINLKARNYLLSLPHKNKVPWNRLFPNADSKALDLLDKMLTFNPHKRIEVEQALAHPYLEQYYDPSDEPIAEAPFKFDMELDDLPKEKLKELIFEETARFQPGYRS

CN(C)C(=O)c1cc(NC(=O)c2cc3c(-c4cnc5[nH]ccc5c4)cccc3s2)ccc1O [CDD-2728, N-(3-(dimethylcarbamoyl)-4-hydroxyphenyl)-4-(1H-pyrrolo[2,3-b]pyridin-5-yl)benzo[b]thiophene-2-carboxamide]
inhibition of IL-6, IL-8, MMP-3 and PTGS2 gene expression [1]: effective inhibitor of IL-6 gene expression; also recorded: more effective inhibitor of the biomarkers IL-8, MMP-3, and PTGS2 gene expression than CDD-939; also recorded: superior efficacy and potency | Kd (CLK3): 1020 nM | Kd (ERK2): 534 nM | cell viability or cell density (iHEEC; short time course, iHEEC): no apparent changes in cell viability or cell density | beta-catenin expression at cell contact points (iHEEC; with IL-1β): inhibited | ALT [2]: 87.34 IU/L and 29.17 IU/L and 23.07 IU/L | AST [2]: 78.94 IU/L and 38.37 IU/L and 35.80 IU/L | AUC(0-inf) [3]: 3.03 ± 0.98 µM·h | AUC(0-t) [3]: 2.95 ± 0.95 µM·h | CL/F [3]: 650 mL/min/kg | Cmax [3]: 1510 ± 530 nM | Tmax [3]: 0.63 ± 0.25 h | half-life [3]: 1.48 ± 0.32 h | MRT last ([3]; read-out: MRT0-t): 1.7 ± 0.34 h | MRT inf ([3]; read-out: MRT0-∞): 1.91 ± 0.44 h | IL-6 expression [4]: equally effective | IL-8 expression [4]: more potent inhibitors of IL-8 expression than bentamapimod; also recorded: effectively suppressed IL-8 production | MMP-3 expression [4]: more potent than CDD-939 at inhibiting MMP-3 expression; also recorded: more effective than bentamapimod | PTGS2 expression [4]: more effective than bentamapimod | phosphorylation of JNK1 or JNK2 (12Z cells): undetectable changes | phosphorylation of Jun relative to total Jun (12Z cells; relative to bentamapimod): superior efficacy
